Data: ChEMBL document CHEMBL1150902, “Certain norditerpenoid alkaloids and their cardiovascular action” (1998)
Active and inactive are the calls of the source. No cut-off for these calls is given here.

How the values were obtained:
[1] = tested on: Rattus norvegicus; assay: Cardiovascular activity in anesthetized Sprague-Dawley rat assessed as reduction in heart rate at 200 ug/kg, iv; type: functional; set-up: scale not given: the % may be the effect or the level left
[2] = tested on: Rattus norvegicus; assay: Cardiovascular activity in anesthetized Sprague-Dawley rat assessed as reduction in blood pressure at 200 ug/kg, iv; type: functional; set-up: scale not given: the % may be the effect or the level left
[3] = tested on: Rattus norvegicus; assay: Cardiovascular activity in anesthetized Sprague-Dawley rat assessed as reduction in heart rat at 400 ug/kg, iv; type: functional; set-up: scale not given: the % may be the effect or the level left
[4] = tested on: Rattus norvegicus; assay: Cardiovascular activity in anesthetized Sprague-Dawley rat assessed as reduction in blood pressure at 400 ug/kg, iv; type: functional; set-up: scale not given: the % may be the effect or the level left
[5] = tested on: Rattus norvegicus; assay: Cardiovascular activity in anesthetized Sprague-Dawley rat assessed as induction of cardiac arrhythmia at 200 ug/kg, iv; type: functional, organism-based; details: Heart
[6] = tested on: Rattus norvegicus; assay: Cardiovascular activity in anesthetized Sprague-Dawley rat assessed as induction of cardiac arrhythmia at 400 ug/kg, iv; type: functional, organism-based; details: Heart
[7] = tested on: Canis familiaris; assay: Cardiovascular activity in dog assessed as increase in cardial vagal afferent nerve activity at 150 ug/kg, iv; type: functional, Canis lupus familiaris
[8] = tested on: Canis familiaris; assay: Cardiovascular activity in dog assessed as decrease in cardial vagal efferent nerve activity at 150 ug/kg, iv; type: functional, Canis lupus familiaris; set-up: scale not given: the % may be the effect or the level left

SMILES	Activity [1]	Activity [2]	Activity [3]	Activity [4]	Activity [5]	Activity [6]	Activity [7]	Activity [8]
CC/C=C\C/C=C\C/C=C\CCCCCCCCC(=O)O[C@]12C[C@H](OC)[C@H]3C[C@H]([C@@H]1[C@H]3OC(=O)c1ccc(OC)c(OC)c1)[C@@]13C4[C@@H]2[C@H](OC)[C@@H]1[C@](COC)(CN4CC)[C@H](O)C[C@@H]3OC	8.5%	30.3%	24.5%	53.4%				
CCN1C[C@]2(OC(=O)c3ccccc3N)CC[C@H](OC)[C@]34C1[C@H](C[C@H]23)[C@@]1(OC(C)=O)C[C@H](OC)[C@H]2C[C@@H]4[C@]1(OC(C)=O)[C@H]2OC	0%	0%	0%	0%				
CCN1C[C@]2(COC)CC[C@H](OC)[C@]34C1[C@H]([C@H](OC)[C@H]23)[C@@]1(OC(=O)c2ccc(N)cc2)C[C@H](OC)[C@@]2(O)C[C@@H]4[C@@H]1[C@H]2OC(=O)c1ccccc1	8.4%	42.4%	14.8%	38%				
CCCCCCCCCCCCCCCCCC(=O)O[C@]12C[C@H](OC)[C@H]3C[C@H]([C@@H]1[C@H]3OC(=O)c1ccc(OC)c(OC)c1)[C@@]13C4[C@@H]2[C@H](OC)[C@@H]1[C@](COC)(CN4CC)[C@H](O)C[C@@H]3OC	0%	15.3%	24.5%	53.4%				
CCN1C[C@]2(COC)CC[C@H](OC)[C@]34C1[C@H]([C@H](OC)[C@H]23)[C@@]1(OC(=O)c2cccc3cc5ccccc5cc23)C=C[C@@]2(O)C[C@@H]4[C@@H]1[C@H]2OC(=O)c1ccccc1	3.7%	0%	3.8%	9.2%				
CC[N+]1([O-])C[C@]2(C)CC[C@H](OC)[C@]34C1[C@H]([C@@H](O)[C@H]23)[C@@]1(O)CC[C@H]2C[C@@H]4[C@@H]1C(=O)O2 (stereo not given in full)	18.8%	28.1%	8.9%	7.6%				
CCN1C[C@]2(COC)CC[C@H](OC)[C@]34C1[C@H](C[C@H]23)[C@H]1C[C@@H](OC)[C@@]2(O)C[C@@H]4[C@@H]1[C@H]2OC(=O)c1ccccc1	0%	22.6%	3%	27.6%				
CCN1C[C@]2(COC)CC[C@H](OC)[C@]34C1[C@H]([C@H](OC)[C@H]23)[C@@]1(OC(=O)c2cccc3cc5ccccc5cc23)C[C@H](OC)[C@@]2(O)C[C@@H]4[C@@H]1[C@H]2OC(=O)c1ccccc1	4.2%	20.8%	2%	0%				
CCN1C[C@]2(COC)CC[C@H](OC)[C@]34C1[C@H]([C@H](OC)[C@H]23)[C@@]1(OC(=O)/C=C/c2ccc(O)c(OC)c2)C[C@H](OC)[C@@]2(O)C[C@@H]4[C@@H]1[C@H]2OC(=O)c1ccccc1	8.3%	8.8%	8.3%	10.6%				
CCN1C[C@@]2(COC)[C@H]3[C@@H](OC)[C@H]4C1[C@]3([C@@H](OC)C[C@H]2OC(C)=O)[C@@H]1C[C@]2(OC(C)=O)[C@@H](OC)C[C@@]4(OC(C)=O)[C@H]1[C@H]2OC(=O)c1ccc(OC)c(OC)c1	5.4%	13.2%	0%	0%				
CCN1C[C@@]2(COC)[C@H]3[C@@H](OC)[C@H]4C1[C@]3([C@@H](OC)C[C@H]2OC(C)=O)[C@@H]1C[C@H]2[C@H](OC(=O)c3ccc(OC)c(OC)c3)[C@@H]1[C@]4(OC(C)=O)C[C@@H]2OC					Active	Active		
CC[N+]1([O-])C[C@]2(COC)CC[C@H](OC)[C@]34C1[C@H]([C@H](OC)[C@H]23)[C@@]1(OC(C)=O)C[C@H](OC)[C@@]2(OC(C)=O)C[C@@H]4[C@@H]1[C@H]2OC(=O)c1ccccc1 (stereo not given in full)	3.8%	0%	8.7%	13.4%				
CCN1C[C@]2(OC(=O)c3ccccc3NC(C)=O)CC[C@H](OC)[C@]34C1[C@H](C[C@H]23)[C@@]12C[C@H](OC)[C@H]3C[C@@H]4[C@]1(OCO2)[C@H]3OC	5.7%	26%	5.6%	16.4%				
CCN1C[C@]2(OC(=O)c3ccccc3N)CC[C@H](OC)[C@]34C1[C@H](C[C@H]23)[C@@]1(O)C[C@H](OC)[C@H]2C[C@@H]4[C@]1(O)[C@H]2OC	12.7%	27.2%	14.8%	57.6%			40%	23.5%
CCN1C[C@]2(COC)CC[C@H](OC)[C@@]34C1[C@@H](C1=C[C@H](OC)[C@@]5(O)C[C@@H]3[C@@H]1[C@H]5OC(=O)c1ccccc1)[C@H](OC)[C@H]24 [PYRODELPHININE]	7.7%	23.1%	8.1%	14.3%				
